According to patent US20110098283A1, “3-CINNOLINECARBOXAMIDE DERIVATIVES AND THEIR USE FOR TREATING CANCER” (ASTRAZENECA AB, priority 2007, published 2011):

biological target: T1, CSF-1R (His-tagged kinase domain, amino acids 568-912) (Homo sapiens, UniProt P07333); test: Assay 2: CSF1R in-vitro AlphaScreen Assay; type: biochemical; conditions: phosphorylation of pEY substrate; 0.46 nM CSF-1R, 12 mM ATP in mix
T1 construct: The His-tagged kinase domain of CSF-1R (i.e., amino acids 568-912, GeneBank ID NM_005211); His; made in house; host or cells: baculovirus infected SF+Express insect cells
T1 sequence (P07333 568-912): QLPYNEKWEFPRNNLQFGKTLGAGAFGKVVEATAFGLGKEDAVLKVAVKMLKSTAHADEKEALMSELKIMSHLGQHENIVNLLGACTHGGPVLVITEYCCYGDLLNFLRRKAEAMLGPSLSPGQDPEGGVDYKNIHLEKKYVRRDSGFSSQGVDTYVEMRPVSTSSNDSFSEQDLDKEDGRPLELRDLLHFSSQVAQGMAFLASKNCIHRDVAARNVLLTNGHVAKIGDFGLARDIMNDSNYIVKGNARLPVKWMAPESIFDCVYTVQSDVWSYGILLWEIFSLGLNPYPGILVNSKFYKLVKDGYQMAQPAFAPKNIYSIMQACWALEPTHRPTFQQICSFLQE
Protocol: Assay 2: CSF1R in-vitro AlphaScreen Assay
Activity of purified CSF-1R was determined in-vitro using an Amplified Luminescent Proximity Homogeneous Assay (ALPHA) (Perkin Elmer, Mass.), which measures phosphorylation of CSF-1R substrate, biotinylated poly-glutamine-tyrosine peptide (pEY-HTRF CisBio 61GT0BLD), as described below. The His-tagged kinase domain of CSF-1R (i e, amino acids 568-912, GeneBank ID NM_005211) was purified from baculovirus infected SF+Express insect cells (1.4×10^6 cells/ml), French pressed and chromatographed through subsequent QIAgen Ni-NTA, Superflow Mono Q HR 10/10, and Superdex 200 SEC columns.
The phosphorylation of the CSF-1R substrate in the presence and absence of the compound of interest was determined. Briefly, 5 ul of Enzyme/Substrate/adenosine triphosphate (ATP) mix consisting of 0.46 nM of purified CSF-1R, 12 nM pEY substrate, and 12 mM ATP in 1.2× buffer was preincubated with 2 ul of compound for 20 minutes at 25° C. Reactions were initiated with 5 ul of Metal mix consisting of 24 mM MgCl2 in 1.2× buffer and incubated at 25° C. for 90 minutes and reactions were stopped by addition of 5 ul of Detection mix consisting of 20 mM HEPES, 102 mM ethylenediamine tetraacetic acid, 1.65 mg/ml BSA, 136 mM NaCl, 40 ug/ml Streptavidin donor beads (Perkin Elmer, Mass., Catalog #6760002), and 40 ug/ml phosphotyrosine-specific antibody coated acceptor beads (Perkin Elmer, Mass., Catalog #6760620). Plates were incubated at 25° C. for 18 hours in the dark. Phosphorylated substrate was detected by an EnVision plate reader (Perkin Elmer) 680 nm excitation, 520-620 nm emission. Data was graphed and IC50s calculated using Excel Fit (Microsoft).

SMILES | IC50
COc1cc2nnc(C(N)=O)c(Nc3ccc(C)cc3F)c2cc1N1C[C@@H](C)O[C@@H](C)C1 [Example 37, 6-[(2R,6S)-2,6-Dimethylmorpholin-4-yl]-4-[(2-fluoro-4-methylphenyl)amino]-7-methoxycinnoline-3-carboxamide] | 71 nM
COc1cc2nnc(C(N)=O)c(Nc3ccc(C)cc3F)c2cc1N1CCn2cnnc2C1 [Example 31, 6-(5,6-Dihydro[1,2,4]triazolo[4,3-a]pyrazin-7(8H)-yl)-4-[(2-fluoro-4-methylphenyl)amino]-7-methoxycinnoline-3-carboxamide] | 13 nM
COc1cc2nnc(C(N)=O)c(Nc3ccc(C)cc3F)c2cc1C1CCN(S(C)(=O)=O)CC1 [Example 50, 4-[(2-Fluoro-4-methylphenyl)amino]-7-methoxy-6-[1-(methylsulfonyl)piperidin-4-yl]cinnoline-3-carboxamide] | 33 nM
COc1cc2nnc(C(N)=O)c(Nc3ccc(C)cc3F)c2cc1N1CCN2CCCC2C1 (centres unmarked) [Example 33, 4-[(2-Fluoro-4-methylphenyl)amino]-6-(hexahydropyrrolo[1,2-a]pyrazin-2(1H)-yl)-7-methoxycinnoline-3-carboxamide] | 12 nM
COc1cc2nnc(C(N)=O)c(Nc3ccc(C)cc3F)c2cc1C1=CCN(C(C)C)CC1 [Example 29, 4-[(2-Fluoro-4-methylphenyl)amino]-6-(1-isopropyl-1,2,3,6-tetrahydropyridin-4-yl)-7-methoxycinnoline-3-carboxamide] | 7 nM
CCOc1cc2nnc(C(N)=O)c(Nc3ccc(C)cc3F)c2cc1N1CCN(CCO)CC1 [Example 43, 7-Ethoxy-4-[(2-fluoro-4-methylphenyl)amino]-6-[4-(2-hydroxyethyl)piperazin-1-yl]cinnoline-3-carboxamide] | 3 nM
COc1cc2nnc(C(N)=O)c(Nc3cccc(Cl)c3F)c2cc1N1C[C@@H](C)N[C@@H](C)C1 [Example 45, 4-[(3-Chloro-2-fluorophenyl)amino]-6-[(3R,5S)-3,5-dimethylpiperazin-1-yl]-7-methoxycinnoline-3-carboxamide] | 6 nM
COc1cc2nnc(C(N)=O)c(Nc3ccc(C)cc3F)c2cc1N1C[C@@H](C)N[C@@H](C)C1 [Example 36, 6-[(3R,5S)-3,5-Dimethylpiperazin-1-yl]-4-[(2-fluoro-4-methylphenyl)amino]-7-methoxycinnoline-3-carboxamide] | < 3 nM
